Measurements taken from patent publication US4102918A, “Anionic phenylcarboxamide complement inhibitors” (American Cyanamid Company, priority 1977, dated 1978).
Counter-ions that a name gives are not always drawn.

Key:
Conditions in all cases: activity in wells, two-fold serial dilution assay; higher well number indicates higher activity
[1] = target: T1, activated human C1 (Homo sapiens, UniProt P09871); test: Test, Code 026 (C1 inhibitor); type: biochemical
T1 construct: fluid-phase C2 cleavage in presence of C4
T1 sequence (P09871 16-688): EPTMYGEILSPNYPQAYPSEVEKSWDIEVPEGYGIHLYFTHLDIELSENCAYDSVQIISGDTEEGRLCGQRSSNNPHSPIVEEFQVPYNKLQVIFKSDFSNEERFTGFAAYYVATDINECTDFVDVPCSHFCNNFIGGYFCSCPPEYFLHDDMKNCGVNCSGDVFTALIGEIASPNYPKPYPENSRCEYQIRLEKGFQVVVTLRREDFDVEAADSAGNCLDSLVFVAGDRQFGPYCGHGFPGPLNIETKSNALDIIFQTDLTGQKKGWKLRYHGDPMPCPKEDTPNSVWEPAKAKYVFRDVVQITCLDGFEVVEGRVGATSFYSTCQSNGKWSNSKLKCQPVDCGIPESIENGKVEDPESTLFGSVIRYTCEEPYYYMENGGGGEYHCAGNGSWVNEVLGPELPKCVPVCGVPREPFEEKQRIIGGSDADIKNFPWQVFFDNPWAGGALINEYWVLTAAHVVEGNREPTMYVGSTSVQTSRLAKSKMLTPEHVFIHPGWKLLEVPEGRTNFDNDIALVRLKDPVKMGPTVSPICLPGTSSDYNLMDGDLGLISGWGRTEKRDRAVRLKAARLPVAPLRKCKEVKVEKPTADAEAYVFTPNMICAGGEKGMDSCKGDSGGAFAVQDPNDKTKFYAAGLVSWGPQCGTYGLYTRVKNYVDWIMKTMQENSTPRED
T1 sequence (P00736 18-705 partner): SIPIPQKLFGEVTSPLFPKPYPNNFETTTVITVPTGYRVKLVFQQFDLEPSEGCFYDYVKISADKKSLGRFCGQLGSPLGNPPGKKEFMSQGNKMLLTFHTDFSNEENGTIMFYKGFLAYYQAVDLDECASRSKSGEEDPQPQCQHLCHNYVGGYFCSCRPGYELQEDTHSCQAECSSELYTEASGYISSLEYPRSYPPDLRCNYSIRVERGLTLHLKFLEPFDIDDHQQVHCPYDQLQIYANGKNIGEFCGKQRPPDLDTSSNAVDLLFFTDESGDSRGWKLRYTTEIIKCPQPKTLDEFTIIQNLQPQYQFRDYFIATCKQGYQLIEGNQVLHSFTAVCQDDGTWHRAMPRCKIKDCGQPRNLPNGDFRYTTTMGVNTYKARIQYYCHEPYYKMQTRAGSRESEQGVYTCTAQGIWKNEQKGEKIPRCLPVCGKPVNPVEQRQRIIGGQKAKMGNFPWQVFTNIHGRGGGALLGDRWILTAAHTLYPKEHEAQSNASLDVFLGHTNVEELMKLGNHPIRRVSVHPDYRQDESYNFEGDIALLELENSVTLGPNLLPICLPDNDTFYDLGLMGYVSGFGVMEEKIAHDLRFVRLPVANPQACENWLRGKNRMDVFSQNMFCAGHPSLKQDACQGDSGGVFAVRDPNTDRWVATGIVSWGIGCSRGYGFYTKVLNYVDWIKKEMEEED
T1 sequence (P02745 23-245 partner): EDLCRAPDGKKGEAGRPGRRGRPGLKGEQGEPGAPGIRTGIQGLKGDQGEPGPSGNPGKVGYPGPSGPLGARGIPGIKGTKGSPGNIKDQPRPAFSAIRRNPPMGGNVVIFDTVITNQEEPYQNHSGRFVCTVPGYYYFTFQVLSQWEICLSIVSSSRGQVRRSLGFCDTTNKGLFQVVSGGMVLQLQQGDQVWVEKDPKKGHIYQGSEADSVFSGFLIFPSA
T1 sequence (P02746 28-253 partner): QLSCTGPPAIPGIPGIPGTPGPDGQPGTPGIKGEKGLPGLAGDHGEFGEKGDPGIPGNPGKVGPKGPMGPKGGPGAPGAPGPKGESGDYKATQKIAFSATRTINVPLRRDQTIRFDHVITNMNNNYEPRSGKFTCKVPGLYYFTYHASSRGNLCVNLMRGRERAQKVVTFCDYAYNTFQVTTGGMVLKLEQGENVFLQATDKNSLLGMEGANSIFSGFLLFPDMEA
T1 sequence (P02747 29-245 partner): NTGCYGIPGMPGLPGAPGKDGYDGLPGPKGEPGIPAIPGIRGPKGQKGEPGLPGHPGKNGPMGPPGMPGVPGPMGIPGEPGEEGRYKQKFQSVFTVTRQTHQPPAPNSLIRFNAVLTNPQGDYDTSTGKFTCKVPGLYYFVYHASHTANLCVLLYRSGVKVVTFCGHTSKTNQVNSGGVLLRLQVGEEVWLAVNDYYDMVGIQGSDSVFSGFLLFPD
Source text: (§1) An active inhibitor protects C2 from C1 and C4; (ii) Test, Code 035 (C3-C9 inhibitor) -- This test determines the ability of the late components of human complement (C3-C9) to lyse EAC 142 in the presence of appropriate dilutions of the test compound. An active inhibitor protects EAC 142 from lysis by human C3-C9; (iii) Test, Code 036 (C-shunt inhibitor) -- In this test human erythrocytes rendered fragile are lysed in autologous serum via the shunt pathway activated by cobra venom factor in the presence of appropriate dilutions of the test compound. Inhibition of the shunt pathway results in failure of lysis; (iv) Forssman Vasculitis Test -- Here, the well known complement dependent lesion, Forssman vasculitis, is produced in guinea pigs by intradermal injection of rabbit anti-Forssman antiserum. The lesion is measured in terms of diameter, edema and hemorrhage and the extent to which a combined index of these is inhibited by prior intraperitoneal injection of the test compound at 200 mg/kg is then reported, unless otherwise stated; (v) Forssman Shock Test -- Lethal shock is produced in guinea pigs by an i.v. injection of anti-Forssman antiserum and the harmonic mean death time of treated guinea pigs is compared with that of simultaneous controls; (vi) Complement Level Reduction Test -- In this test, the above dosed guinea pigs, or others, are bled for serum and the complement level is determined in undiluted serum by the capillary tube method of U.S. Pat. No. 3,876,376 and compared to undosed control guinea pigs; and (vii) Cap 50 Test -- Here, appropriate amounts of the test compound are added to a pool of guinea pig serum in vitro, after which the undiluted serum capillary tube assay referred to above is run. The concentration of compound inhibiting 50% is reported.

[2] = system: shunt pathway; test: Test, Code 036 (C-shunt inhibitor), lysis of fragile human erythrocytes in autologous serum, cobra venom factor activated; type: cell-based
Source text: as §1

[3] = system: late components of human complement (C3-C9); test: Test, Code 035 (C3-C9 inhibitor), lysis of EAC 142; type: biochemical
Source text: as §1

Nc1cc(C(=O)Nc2cc(C(=O)O)c(O)c(S(=O)(=O)O)c2)cc(C(=O)Nc2cc(C(=O)O)c(O)c(S(=O)(=O)O)c2)c1 [5,5'-[5-Amino-1,3-phenylenebis(carbonylimino)]bis[3-sulfosalicylic acid]disodium salt]
Cl 026 Wells [1]: +2 Wells
Shunt Inhibition 036 Wells [2]: N
C-Late 035 Wells [3]: N

O=C(Nc1ccc(O)c(C(=O)O)c1)c1cc(C(=O)Nc2ccc(O)c(C(=O)O)c2)cc([N+](=O)[O-])c1 [5,5'-[5-Nitro-m-phenylenebis(carbonylimino)]disalicylic acid]
Cl 026 Wells [1]: α
Shunt Inhibition 036 Wells [2]: N
C-Late 035 Wells [3]: N

O=C(Nc1cc(C(=O)O)c(O)c(S(=O)(=O)O)c1)c1cc(C(=O)Nc2cc(C(=O)O)c(O)c(S(=O)(=O)O)c2)cc([N+](=O)[O-])c1 [5,5'-[(5-Nitro-1,3-phenylene)bis(carbonylimino)]bis[3-sulfosalicylic acid]disodium salt]
Cl 026 Wells [1]: +2 Wells
Shunt Inhibition 036 Wells [2]: N
C-Late 035 Wells [3]: N
